One experiment addresses T1, P2X3 (Homo sapiens, UniProt P56373).
T1 construct: expressed in transfected cells; host or cells: e.g. HEK293 or 1321N1
T1 sequence (P56373 1-397): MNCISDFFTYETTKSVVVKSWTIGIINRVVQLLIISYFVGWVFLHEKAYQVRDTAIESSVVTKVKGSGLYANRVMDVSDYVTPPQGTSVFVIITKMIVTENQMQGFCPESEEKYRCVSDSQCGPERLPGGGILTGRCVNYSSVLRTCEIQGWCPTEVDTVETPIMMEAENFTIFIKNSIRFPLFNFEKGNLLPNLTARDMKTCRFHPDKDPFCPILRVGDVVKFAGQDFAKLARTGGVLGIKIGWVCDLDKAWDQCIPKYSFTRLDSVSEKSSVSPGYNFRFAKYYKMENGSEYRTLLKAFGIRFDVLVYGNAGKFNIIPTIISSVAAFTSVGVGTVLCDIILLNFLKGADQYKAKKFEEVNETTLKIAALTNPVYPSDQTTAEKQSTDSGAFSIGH
Description: Calcium uptake assay (P2X antagonist assay, inhibition of agonist-induced calcium influx), P2X3. The class given is cell-based. As to conditions: inhibition of agonist-induced calcium influx in cells expressing the receptor. From the text: (§1) The human P2X2/3 chimera clone is created as described by Neelands et al, and then cloned into an expression vector as above. Receptors are expressed in cells (e.g., HEK293 or 1321N1 (obtained from the ECACC)) via transient transfection using standard lipid mediated transfection, or by creation of stable transfectants for each receptor. For expression of the P2X2/3 heteromeric receptor, the P2X3 expression vector is stably transfected into a cell line already stably expressing P2X2. P2X2/3 heteromer function is isolated using pharmacological methods. Cell lines are maintained in DMEM+5% Glutamax, the appropriate level of selective antibiotic, and 10% heat inactivated FBS.
(§2) Functional activity of compounds at the P2X receptor is determined by measuring their ability to inhibit agonist-induced calcium influx. Compounds are tested for antagonist activity against the P2X2/3 chimera, the P2X3 homomer, or the P2X2/3 heteromer. At the start of each screening day, the agonist EC50 is determined. Compound % inhibition or IC50s are subsequently determined using a pre-determined agonist concentration (EC50-90 depending on cell line) as a stimulus. The agonists used are αβMeATP, ATP, or other ATP analogs. Compounds may be tested at concentrations ranging from 1 pM to 10 μM.
(§3) To test for antagonist activity, cells expressing the appropriate receptor are seeded onto 96 or 384 well plates 18-24 hours prior to assay. […] Plates are incubated at 37° C. and then equilibrated at room temperature. Antagonism of agonist-induced calcium influx is measured using a fluorescent imaging plate reader (e.g. FLIPR^TETRA, Molecular Devices, Sunnyvale, Calif.). The assay comprises two stages: a pre-treatment phase followed by a treatment phase. Compounds may be tested as follows: For the pre-treatment phase, 50 μL of 3× concentration of test compound in HBSS is added to cells containing 100 μL of dye loading media to achieve a final concentration of 1× test compound. For the treatment phase, at a set interval after pre-treatment (1-30 minutes), 50 μl, of 1× test compound plus 4× agonist solution is added, resulting in a final concentration of 1× compound and 1× agonist. […] Responses are measured as (peak fluorescence after agonist addition) minus (baseline fluorescence prior to treatment). Percent inhibition is calculated as follows: […]
(§4) IC50 values are determined by analyzing dose response data in a 4 parameter logistic fit using GraphPad Prizm.

The target of a further experiment is T2, P2X2/3 (Homo sapiens, UniProt P56373+Q9UBL9).
T2 construct: expressed in transfected cells; host or cells: cell line stably expressing P2X2, stably transfected with P2X3 (e.g. HEK293 or 1321N1)
T2 sequence (Q9UBL9 1-471): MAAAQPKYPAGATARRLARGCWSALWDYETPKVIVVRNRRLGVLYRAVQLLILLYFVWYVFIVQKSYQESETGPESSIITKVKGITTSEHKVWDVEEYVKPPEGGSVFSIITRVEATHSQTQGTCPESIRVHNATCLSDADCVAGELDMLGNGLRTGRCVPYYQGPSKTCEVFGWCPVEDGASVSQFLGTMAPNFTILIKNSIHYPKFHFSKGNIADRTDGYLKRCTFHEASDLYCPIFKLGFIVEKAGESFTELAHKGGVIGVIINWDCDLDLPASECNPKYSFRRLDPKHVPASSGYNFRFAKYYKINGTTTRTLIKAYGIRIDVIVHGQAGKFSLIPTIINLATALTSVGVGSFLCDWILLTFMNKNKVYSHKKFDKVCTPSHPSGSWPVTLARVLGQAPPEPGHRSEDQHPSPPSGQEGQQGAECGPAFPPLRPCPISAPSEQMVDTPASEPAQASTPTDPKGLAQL
T2 sequence (P56373 1-397): T1 sequence (P56373 1-397)
Put plainly: Calcium uptake assay (P2X antagonist assay, inhibition of agonist-induced calcium influx), P2X2/3. Format: cell-based. The following applies: inhibition of agonist-induced calcium influx in cells expressing the receptor.
Text: as §1, §2, §3, §4

A value given as a limit tells only on which side of the number the result lay.

This is an account of results in patent US20120149700A1, “2-CYANOPHENYL FUSED HETEROCYCLIC COMPOUNDS, AND COMPOSTIONS AND USES THEREOF” (priority 2007, published 2012).

As usually defined, the IC50 is the concentration that gives 50% inhibition.

As to `Cc1ccc(N2CCc3ncnc(NC(CCO)c4ccc(C(F)(F)F)nc4)c3C2)c(C#N)c1` (stereo not shown) [Compound 25, 2-{4-[3-Hydroxy-1-(6-trifluoromethyl-pyridin-3-yl)-propylamino]-7,8-dihydro-5H-pyrido[4,3-d]pyrimidin-6-yl}-5-methyl-benzonitrile], the IC50 at P2X3 is 55 nM; on P2X2/3 it was 136 nM. For `Cc1ccc(N2CCc3ncnc(NCc4ccc(C)c(N5CCOCC5)c4)c3C2)c(C#N)c1` [Compound 63, 5-Methyl-2-[4-(4-methyl-3-morpholin-4-yl-benzylamino)-7,8-dihydro-5H-pyrido[4,3-d]pyrimidin-6-yl]-benzonitrile], in that order: 96 nM and 1120 nM. For `COc1ccc([C@@H](CO)Nc2ncnc3c2CN(c2ccc(Cl)cc2C#N)CC3)cn1` [Compound 35, 5-Chloro-2-{4-[(S)-2-hydroxy-1-(6-methoxy-pyridin-3-yl)-ethylamino]-7,8-dihydro-5H-pyrido[4,3-d]pyrimidin-6-yl}-benzonitrile], in that order: 23 nM and 200 nM.

`N#Cc1cc(Cl)ccc1N1CCc2ncnc(NCc3ccc(Cl)c(-n4cnnc4)c3)c2C1` [Compound 52, 5-Chloro-2-[4-(4-chloro-3-[1,2,4]triazol-4-yl-benzylamino)-7,8-dihydro-5H-pyrido[4,3-d]pyrimidin-6-yl]-benzonitrile]: the IC50 on P2X3 turned out to be 41 nM; at P2X2/3 it was 286 nM.

Consider `N#Cc1cc(Cl)ccc1N1CCc2ncnc(NCc3ncc(C(F)(F)F)cc3Cl)c2C1` [Compound 16, 5-Chloro-2-{4-[(3-chloro-5-trifluoromethyl-pyridin-2-ylmethyl)-amino]-7,8-dihydro-5H-pyrido[4,3-d]pyrimidin-6-yl}-benzonitrile], for which the half-inhibitory concentration (IC50) at P2X3 is 91 nM; on P2X2/3, 1130 nM. The corresponding values for `Cc1ccc(N2CCc3ncnc(N[C@H](CCO)c4ccc(C(F)(F)F)nc4)c3C2)c(C#N)c1` [Compound 64, 2-{4-[(R)-3-Hydroxy-1-(6-trifluoromethyl-pyridin-3-yl)-propylamino]-7,8-dihydro-5H-pyrido[4,3-d]pyrimidin-6-yl}-5-methyl-benzonitrile] are 23 nM and 59 nM. The corresponding values for `Cc1ccc(N2CCc3ncnc(NCc4ccc5ocnc5c4)c3C2)c(C#N)c1` [Compound 38, 2-{4-[(Benzooxazol-5-ylmethyl)-amino]-7,8-dihydro-5H-pyrido[4,3-d]pyrimidin-6-yl}-5-methyl-benzonitrile] are 15 nM and 45 nM.

Regarding `Cc1ccc(N2CCc3ncnc(NCc4ccc(C5CC5)cn4)c3C2)c(C#N)c1` [Compound 30, 2-{4-[(5-Cyclopropyl-pyridin-2-ylmethyl)-amino]-7,8-dihydro-5H-pyrido[4,3-d]pyrimidin-6-yl}-5-methyl-benzonitrile], the figures for the half-inhibitory concentration (IC50) at P2X3 and at P2X2/3 were 236 nM and 377 nM, respectively.

For `N#Cc1cc(Cl)ccc1N1CCc2ncnc(NCc3cccc(-n4cnnc4)c3)c2C1` [Compound 51, 5-Chloro-2-[4-(3-[1,2,4]triazol-4-yl-benzylamino)-7,8-dihydro-5H-pyrido[4,3-d]pyrimidin-6-yl]-benzonitrile], the IC50 is 284 nM on P2X3 and 1020 nM on P2X2/3. For `Cc1ccc(N2CCc3ncnc(NCc4ccc(Cl)cn4)c3C2)c(C#N)c1` [Compound 28, 2-{-4-[(5-Chloro-pyridin-2-ylmethyl)-amino]-7,8-dihydro-5,1-pyrido[4,3-d]pyrimidin-6-yl}-5-methyl-benzonitrile], in that order: 29 nM and 152 nM. For `N#Cc1cc(Cl)ccc1N1CCc2ncnc(NCc3ccn4ccnc4c3)c2C1` [Compound 44, 5-Chloro-2-{4-[(imidazo[1,2-a]pyridin-7-ylmethyl)-amino]-7,8-dihydro-5H-pyrido[4,3-d]pyrimidin-6-yl}-benzonitrile], in that order: 122 nM and 753 nM. Turning to `N#Cc1cc(Cl)ccc1N1CCc2ncnc(NCc3ccc(C(F)(F)F)cn3)c2C1` [Compound 17, 5-Chloro-2-{4-[(5-trifluoromethyl-pyridin-2-ylmethyl)-amino]-7,8-dihydro-5H-pyrido[4,3-d]pyrimidin-6-yl}-benzonitrile], the IC50 is 118 nM at P2X3 and 4890 nM at P2X2/3. The corresponding values for `N#Cc1cc(Cl)ccc1N1CCc2ncnc(NCc3ccc4nccnc4c3)c2C1` [Compound 84, 5-Chloro-2-{4-[(quinoxalin-6-ylmethyl)-amino]-7,8-dihydro-5H-pyrido[4,3-d]pyrimidin-6-yl}-benzonitrile] are 125 nM and 478 nM. In the case of `COc1ccc([C@@H](CC(=O)OC(C)(C)C)Nc2ncnc3c2CN(c2ccc(Cl)cc2C#N)CC3)cn1` [Compound 18, (R)-3-[6-(4-Chloro-2-cyano-phenyl)-5,6,7,8-tetrahydro-pyrido[4,3-d]pyrimidin-4-ylamino]-3-(6-methoxy-pyridin-3-yl)-propionic acid tert-butyl ester], the 50% inhibitory concentration (IC50) at P2X3 and at P2X2/3 was more than 10000 nM throughout. As to `N#Cc1cc(Cl)ccc1N1CCc2ncnc(N[C@H](CCO)c3ccc(C(F)(F)F)nc3)c2C1` [Compound 20, 5-Chloro-2-{4-[(R)-3-hydroxy-1-(6-trifluoromethyl-pyridin-3-yl)-propylamino]-7,8-dihydro-5H-pyrido[4,3-d]pyrimidin-6-yl}-benzonitrile], the results for the IC50 on P2X3 and on P2X2/3 were 90 nM and 903 nM, respectively. For `COc1ccc([C@@H](CCO)Nc2ncnc3c2CN(c2ccc(Cl)cc2C#N)CC3)cn1` [Compound 34, 5-Chloro-2-{4-[(R)-3-hydroxy-1-(6-methoxy-pyridin-3-yl)-propylamino]-7,8-dihydro-5H-pyrido[4,3-d]pyrimidin-6-yl}-benzonitrile], in that order: 33 nM and 105 nM. The corresponding values for `CCc1ccc(CNc2ncnc3c2CN(c2ccc(C)cc2C#N)CC3)cn1` [Compound 33, 2-{4-[(6-Ethyl-pyridin-3-ylmethyl)-amino]-7,8-dihydro-5H-pyrido[4,3-d]pyrimidin-6-yl}-5-methyl-benzonitrile] are 38 nM and 127 nM. Regarding `N#Cc1cc(C(F)(F)F)ccc1N1CCc2ncnc(NCc3ccc(C(F)(F)F)nc3)c2C1` [Compound 5, 5-Trifluoromethyl-2-{4-[(6-trifluoromethyl-pyridin-3-ylmethyl)-amino]-7,8-dihydro-5H-pyrido[4,3-d]pyrimidin-6-yl}-benzonitrile], the 50% inhibitory concentration (IC50) on P2X3 is 1840 nM. As to `N#Cc1cc(C2CC2)ccc1N1CCc2ncnc(NCc3ccc(C(F)(F)F)nc3)c2C1` [Compound 3, 5-Cyclopropyl-2-{4-[(6-trifluoromethyl-pyridin-3-ylmethyl)-amino]-7,8-dihydro-5H-pyrido[4,3-d]pyrimidin-6-yl}-benzonitrile], the IC50 at P2X3 is 870 nM.

On to `N#Cc1cc(Br)ccc1N1CCc2ncnc(NCc3ccc(C(F)(F)F)nc3)c2C1` [Compound 2, 5-Bromo-2-{4-[(6-trifluoromethyl-pyridin-3-ylmethyl)-amino]-7,8-dihydro-5H-pyrido[4,3-d]pyrimidin-6-yl}-benzonitrile], for which, at P2X3, the half-inhibitory concentration (IC50) amounted to 80 nM.
